Here are results for nine molecules from US20230017045A1, “PYRIDINE AND PYRIMIDINE CARBOXYLATE HERBICIDES AND METHODS OF USE THEREOF” (Dow AgroSciences LLC, priority 2017, published 2023).

Read-outs that look alike come from different tables or passages of the source.

This experiment deals with test plant species. Nature of the experiment: Post-emergent herbicidal activity test (greenhouse, foliar spray, visual growth reduction). Format: in vivo. The following applies: post-emergence, 336 h, 140 g ai/ha. In outline: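 Plants grown in greenhouse (15 h photoperiod, 23-29° C day/22-28° C night) to first or second true leaf stage were sprayed overhead with compound in acetone/water/isopropanol/DMSO/crop oil/X-77 carrier at 187 L/ha. Injury was scored visually after 14 d on a 0-100% scale versus solvent-blank and untreated controls.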

Setting [1] is: ECHCG: barnyardgrass (Echinochloa crus-galli), 14 days after application, read-out: Visual Growth Reduction (%) 14 Days After Application, ECHCG.
The mark [2] stands for this setting: IPOHE: ivy-leaf morning glory (Ipomoea hederacea), 14 days after application, read-out: Visual Growth Reduction (%) 14 Days After Application, IPOHE.
Where [3] appears, read: KCHSC: kochia (Bassia scoparia), 14 days after application, read-out: Visual Growth Reduction (%) 14 Days After Application, KCHSC.
The mark [4] stands for this setting: ORYSA: rice (Oryza sativa), 14 days after application, read-out: Visual Growth Reduction (%) 14 Days After Application, ORYSA.
The mark [5] stands for this setting: SETFA: giant foxtail (Setaria faberi), 14 days after application, read-out: Visual Growth Reduction (%) 14 Days After Application, SETFA.
The mark [6] stands for this setting: SORVU: grain sorghum (Sorghum vulgare), 14 days after application, read-out: Visual Growth Reduction (%) 14 Days After Application, SORVU.
Where [7] appears, read: STEME: common chickweed (Stellaria media), 14 days after application, read-out: Visual Growth Reduction (%) 14 Days After Application, STEME.
Setting [8] is: TRZAS: wheat, spring (Triticum aestivum), 14 days after application, read-out: Visual Growth Reduction (%) 14 Days After Application, TRZAS.
The mark [9] stands for this setting: blackgrass (Alopecurus myosuroides), 14 Days After Application, read-out: Visual Growth Reduction (%) ALOMY.
Where [10] appears, read: canada thistle (Cirsium arvense), 14 Days After Application, read-out: Visual Growth Reduction (%) CIRAR.
The mark [11] stands for this setting: crabgrass (Digitaria sanguinalis), 14 Days After Application, read-out: Visual Growth Reduction (%) DIGSA.
Setting [12] is: lambsquarters (Chenopodium album), 14 Days After Application, read-out: Visual Growth Reduction (%) CHEAL.
Where [13] appears, read: redroot pigweed (Amaranthus retroflexus), 14 Days After Application, read-out: Visual Growth Reduction (%) AMARE.
Where [14] appears, read: wild oat (Avena fatua), 14 Days After Application, read-out: Visual Growth Reduction (%) AVEFA.
Setting [15] is: yellow nutsedge (Cyperus esculentus), 14 Days After Application, read-out: Visual Growth Reduction (%) CYPES.

`COC(=O)c1nc(-c2ccc(N)cc2)c(F)cc1Cl` [F247, Methyl 6-(4-aminophenyl)-3-chloro-5-fluoropicolinate]: the pest or weed control at 140 g/ha under setting [1] fell in the range of 0 to 29%; the pest or weed control at 140 g/ha under setting [2] fell in the range of 0 to 29%; the pest or weed control at 140 g/ha under setting [3] is 0 to 29%; the pest or weed control at 140 g/ha under setting [4] was 0 to 29%; the pest or weed control at 140 g/ha under setting [5] lay in the range of 0 to 29%; the pest or weed control at 140 g/ha under setting [6] is 0 to 29%. Moreover, the pest or weed control at 140 g/ha under setting [7] was in the range of 0 to 29%; the pest or weed control at 140 g/ha under setting [8] was 0 to 29%; the pest or weed control at 140 g/ha under setting [9] was in the range of 0 to 29%; the pest or weed control at 140 g/ha under setting [10] is 0 to 29%; the pest or weed control at 140 g/ha under setting [11] lay in the range of 0 to 29%; the pest or weed control at 140 g/ha under setting [12] was in the range of 60 to 74%. Also, the pest or weed control at 140 g/ha is, setting by setting: under setting [13], 0 to 29%; under setting [14], 0 to 29%; under setting [15], 0 to 29%.

As for `COC(=O)c1nc(-c2ccc(SC)cc2)c(F)cc1Cl` [F248, Methyl 3-chloro-5-fluoro-6-(4-(methylthio)phenyl) picolinate], the pest or weed control at 140 g/ha runs as follows: under setting [1], 0 to 29%; under setting [2], 30 to 44%; under setting [3], 0 to 29%; under setting [4], 0 to 29%; under setting [5], 0 to 29%; under setting [6], 0 to 29%. Further, the pest or weed control at 140 g/ha runs as follows: under setting [7], 0 to 29%; under setting [8], 0 to 29%; under setting [9], 0 to 29%; under setting [10], 0 to 29%; under setting [11], 60 to 74%; under setting [12], 0 to 29%. In addition, the pest or weed control at 140 g/ha under setting [13] was 0 to 29%, the pest or weed control at 140 g/ha under setting [14] fell in the range of 0 to 29% and the pest or weed control at 140 g/ha under setting [15] was in the range of 0 to 29%.

Take `COC(=O)c1nc(-c2ccc(C)cc2)c(F)cc1Cl` [F249, Methyl 3-chloro-5-fluoro-6-(p-tolyl)picolinate]: the pest or weed control at 140 g/ha runs as follows: under setting [1], 0 to 29%; under setting [2], 0 to 29%; under setting [3], 0 to 29%; under setting [4], 0 to 29%; under setting [5], 0 to 29%; under setting [6], 0 to 29%. The pest or weed control at 140 g/ha under setting [7] fell in the range of 0 to 29%; the pest or weed control at 140 g/ha under setting [8] was 0 to 29%; the pest or weed control at 140 g/ha under setting [9] fell in the range of 0 to 29%; the pest or weed control at 140 g/ha under setting [10] fell in the range of 0 to 29%; the pest or weed control at 140 g/ha under setting [11] is 0 to 29%; the pest or weed control at 140 g/ha under setting [12] was 60 to 74%. The pest or weed control at 140 g/ha is 0 to 29% under setting [13], 0 to 29% under setting [14] and 0 to 29% under setting [15].

On to `COC(=O)c1nc(-c2c(C)cc(C(F)(F)F)cc2Cl)ccc1Cl` [F250, Methyl 3-chloro-6-(2-chloro-6-methyl-4-(trifluoromethyl)phenyl) picolinate], for which the pest or weed control at 140 g/ha under setting [1] fell in the range of 0 to 29%; the pest or weed control at 140 g/ha under setting [2] was in the range of 95 to 100%; the pest or weed control at 140 g/ha under setting [3] lay in the range of 0 to 29%; the pest or weed control at 140 g/ha under setting [4] lay within 0 to 29%; the pest or weed control at 140 g/ha under setting [5] was in the range of 45 to 59%; the pest or weed control at 140 g/ha under setting [6] was 85 to 94%. Further, the pest or weed control at 140 g/ha reads like this: under setting [7], 0 to 29%; under setting [8], 45 to 59%; under setting [9], 0 to 29%; under setting [10], 60 to 74%; under setting [11], 85 to 94%; under setting [12], 75 to 84%. Also, the pest or weed control at 140 g/ha lay in the range of 0 to 29% under setting [13], 0 to 29% under setting [14] and 0 to 29% under setting [15].

With `C#Cc1cc(-c2nc(C(=O)OC)c(Cl)cc2F)c(Cl)cc1C(F)(F)F` [F251, Methyl 3-chloro-6-(2-chloro-5-ethynyl-4-(trifluoromethyl)phenyl)-5-yl) picolinate], the pest or weed control at 140 g/ha under setting [1] was 0 to 29%; the pest or weed control at 140 g/ha under setting [2] lay in the range of 95 to 100%; the pest or weed control at 140 g/ha under setting [3] is 60 to 74%; the pest or weed control at 140 g/ha under setting [4] fell in the range of 0 to 29%; the pest or weed control at 140 g/ha under setting [5] fell in the range of 85 to 94%; the pest or weed control at 140 g/ha under setting [6] fell in the range of 85 to 94%. Moreover, the pest or weed control at 140 g/ha by setting is: under setting [7], 0 to 29%; under setting [8], 0 to 29%; under setting [9], 0 to 29%; under setting [10], 85 to 94%; under setting [11], 75 to 84%; under setting [12], 95 to 100%. For the same molecule, the pest or weed control at 140 g/ha is 85 to 94% under setting [13], 0 to 29% under setting [14] and 0 to 29% under setting [15].

Regarding `O=C(O)c1nc(-c2ccc(C(F)(F)F)cc2Cl)ccc1[N+](=O)[O-]` [F252, 6-(2-Chloro-4-(trifluoromethyl)phenyl)-3-nitropicolinic acid], the pest or weed control at 140 g/ha was in the range of 0 to 29% under setting [1]; 30 to 44% under setting [2]; 0 to 29% under setting [3]; 0 to 29% under setting [4]; 0 to 29% under setting [5]; 45 to 59% under setting [6]. Moreover, the pest or weed control at 140 g/ha is 0 to 29% under setting [7]; 0 to 29% under setting [8]; 0 to 29% under setting [9]; 0 to 29% under setting [10]; 30 to 44% under setting [11]; 60 to 74% under setting [12]. Besides, the pest or weed control at 140 g/ha under setting [13] was in the range of 0 to 29%, the pest or weed control at 140 g/ha under setting [14] was 0 to 29% and the pest or weed control at 140 g/ha under setting [15] was in the range of 0 to 29%.

With `COC(=O)c1nc(-c2ccc(C(F)F)c(F)c2OC)c(F)cc1Cl` [F253, methyl 3-chloro-6-(4-(difluoromethyl)-3-fluoro-2-methoxyphenyl)-5-fluoropicolinate], the pest or weed control at 140 g/ha lay in the range of 60 to 74% under setting [1]; 95 to 100% under setting [2]; 95 to 100% under setting [3]; 0 to 29% under setting [4]; 0 to 29% under setting [5]; 45 to 59% under setting [6]. Moreover, the pest or weed control at 140 g/ha lay within 0 to 29% under setting [7]; 0 to 29% under setting [8]; 0 to 29% under setting [9]; 95 to 100% under setting [10]; 0 to 29% under setting [11]; 95 to 100% under setting [12]. The pest or weed control at 140 g/ha lay within 95 to 100% under setting [13], 0 to 29% under setting [14] and 0 to 29% under setting [15].

On to `O=C(O)c1nc(-c2cc(F)c(C(F)(F)F)cc2Cl)c(F)cc1Cl` [F254, 3-Chloro-6-(2-chloro-5-fluoro-4-(trifluoromethyl)phenyl)-5-fluoropicolinic acid], for which the pest or weed control at 140 g/ha was 95 to 100% under setting [1]; 95 to 100% under setting [2]; 85 to 94% under setting [3]; 75 to 84% under setting [4]; 95 to 100% under setting [5]; 95 to 100% under setting [6]. Further, the pest or weed control at 140 g/ha under setting [7] was 95 to 100%; the pest or weed control at 140 g/ha under setting [8] was 95 to 100%; the pest or weed control at 140 g/ha under setting [9] was 85 to 94%; the pest or weed control at 140 g/ha under setting [10] fell in the range of 95 to 100%; the pest or weed control at 140 g/ha under setting [11] lay within 95 to 100%; the pest or weed control at 140 g/ha under setting [12] was 95 to 100%. Moreover, the pest or weed control at 140 g/ha under setting [13] was 95 to 100%, the pest or weed control at 140 g/ha under setting [14] lay in the range of 95 to 100% and the pest or weed control at 140 g/ha under setting [15] was in the range of 60 to 74%.

Turning to `O=C(O)c1nc(-c2cccc3c2OC(F)(F)O3)ccc1Cl` [F255, 3-Chloro-6-(2,2-difluorobenzo[d][1,3]dioxol-4-yl)picolinic acid], the pest or weed control at 140 g/ha under setting [1] lay within 0 to 29%; the pest or weed control at 140 g/ha under setting [2] lay in the range of 0 to 29%; the pest or weed control at 140 g/ha under setting [3] was in the range of 0 to 29%; the pest or weed control at 140 g/ha under setting [4] lay within 0 to 29%; the pest or weed control at 140 g/ha under setting [5] was in the range of 0 to 29%; the pest or weed control at 140 g/ha under setting [6] lay in the range of 0 to 29%. Besides, the pest or weed control at 140 g/ha is, setting by setting: under setting [7], 0 to 29%; under setting [8], 0 to 29%; under setting [9], 0 to 29%; under setting [10], 0 to 29%; under setting [11], 0 to 29%; under setting [12], 0 to 29%. Further, the pest or weed control at 140 g/ha is, setting by setting: under setting [13], 0 to 29%; under setting [14], 0 to 29%; under setting [15], 0 to 29%.
